For orientation: IC50 means the concentration that inhibits the measured activity by half.

Data on eight compounds can be found in paper PMC8294059, “Identification and Immune Assessment of T Cell Epitopes in Five Plasmodium falciparum Blood Stage Antigens to Facilitate Vaccine Candidate Selection and Optimization” (Frontiers in Immunology, 2021).

What all share (assay): biochemical
Type in all cases: binding

For test [1], the target named is T1, HLA-DRB1*0401 (Homo sapiens, UniProt P01903+P01911, A100K/A169T/F76Y/I96L/K127E/L162R/M171V/N62H/P40V/Q125Y/R42H/S133A/S149N/S66Y/V115G/V209L/W38E).
T1 construct: purchased
As to conditions: binding inhibition assay; NB = non-binder (no dose-dependent inhibition); read-out: DRB1*0401 IC50. In short, it runs like this:
(§1)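 Peptides were titrated (final 100,000 nM down to 100 nM) in competition with a labeled reference binder for commercial HLA-DRB1 monomers.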

The target in test [2] is HLA-DRB1*1101 (Homo sapiens, UniProt P01903+P01911, A100R/A169T/A87E/I96F/K41T/L162R/M171V/P40S/Q125H/Q178H/Q39Y/Q99D/R42S/S66Y/T262R/V115G/W38E). As to conditions: binding inhibition assay; NB = non-binder (no dose-dependent inhibition); read-out: DRB1*1101 IC50. In a few lines: as §1
Sequence of HLA-DRB1*1101 (P01903 26-254 limits assumed, other chains not shown): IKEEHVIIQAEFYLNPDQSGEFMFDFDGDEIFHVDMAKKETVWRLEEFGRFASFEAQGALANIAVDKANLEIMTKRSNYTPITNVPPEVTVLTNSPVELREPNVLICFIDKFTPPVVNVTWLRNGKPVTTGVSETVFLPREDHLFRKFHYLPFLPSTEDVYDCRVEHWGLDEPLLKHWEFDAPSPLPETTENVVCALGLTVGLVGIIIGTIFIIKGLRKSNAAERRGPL
The target of test [3] is HLA-DRB1*0801 (Homo sapiens, UniProt P01903+P01911, A100R/A103L/A169T/D86S/F76Y/H45Y/I96F/K41T/L162R/M171V/P40S/Q125H/Q178H/Q39Y/Q99D/R218S/R42G/S66Y/V115G/W38E). As to conditions: binding inhibition assay; NB = non-binder (no dose-dependent inhibition); read-out: DRB1*0801 IC50. In short, it runs like this:
as §1

The target in test [4] is HLA-DRB1*1301 (Homo sapiens, UniProt P01903+P01911, A100E/A169T/K41T/L162R/M171V/P40S/Q125H/Q178H/Q39Y/Q99D/R42S/S66N/T262R/W38E/Y61H). As to conditions: binding inhibition assay; NB = non-binder (no dose-dependent inhibition); read-out: DRB1*1301 IC50. In short, it runs like this:
as §1

For test [5], the target named is T2, HLA-DRB1*1501 (Homo sapiens, UniProt P01903+P01911).
T2 construct: purchased
Conditions: binding inhibition assay; NB = non-binder (no dose-dependent inhibition); read-out: DRB1*1501 IC50. In short, it runs like this:
as §1

Test [6] concerns the target T3, HLA-DRB1*0101 (Homo sapiens, UniProt P01903+P01911, A100R/D57E/F55L/F60I/F76Y/I96L/L162R/M171V/P40L/Q125E/R42F/V115G/Y59C).
T3 construct: purchased
Conditions: binding inhibition assay; NB = non-binder (no dose-dependent inhibition); read-out: DRB1*0101 IC50. In a few lines: as §1

Test [7] has as its target HLA-DRB1*0701 (Homo sapiens, UniProt P01903+P01911, A100R/A102G/A103Q/D57E/D86V/E43K/F76Y/K127E/L162R/M171V/P40G/Q125H/Q99D/R33Q/R42Y/R54Q/S133A/S66F/T210M/V115G/Y107V/Y59L/Y89S). Conditions: binding inhibition assay; NB = non-binder (no dose-dependent inhibition); read-out: DRB1*0701 IC50. In short, it runs like this:
as §1

Where a SMILES comes first, the peptide text is derived from it.

In the case of `CC[C@H](C)[C@H](NC(=O)[C@H](CCCCN)NC(=O)[C@H](CCCCN)NC(=O)[C@H](CCCCN)NC(=O)[C@H](CC(C)C)NC(=O)[C@H](Cc1ccc(O)cc1)NC(=O)[C@@H](NC(=O)[C@@H](NC(=O)[C@@H](NC(=O)[C@H](Cc1c[nH]cn1)NC(=O)[C@H](Cc1ccccc1)NC(=O)[C@@H](NC(=O)[C@H](CCC(=O)O)NC(=O)[C@H](CC(N)=O)NC(C)=O)[C@@H](C)CC)[C@@H](C)O)[C@@H](C)CC)[C@@H](C)CC)C(=O)NCC(=O)N[C@@H](CC(N)=O)C(=O)N[C@@H](CO)C(=O)N[C@H](C(=O)N[C@H](C(=O)N[C@@H](Cc1ccc(O)cc1)C(=O)N[C@@H](CC(=O)O)C(N)=O)[C@@H](C)CC)C(C)C` [RIPR_019] (Ac-NEIFHTIIYLKKKIGNSVIYD-NH2), the IC50 worked out at 3.03 µM in test [1]; 0.066 µM in test [2]; 1.35 µM in test [3]; 3.49 µM in test [4]; 0.898 µM in test [5]; 0.346 µM in test [6]. In test [7], the IC50 was determined as 3.86 µM.

For the compound `CC[C@H](C)[C@H](NC(=O)[C@H](CS)NC(=O)[C@H](CCCCN)NC(=O)CNC(=O)[C@H](Cc1ccc(O)cc1)NC(=O)[C@@H](NC(=O)[C@H](CO)NC(=O)[C@H](CO)NC(=O)[C@H](CCCCN)NC(=O)[C@H](Cc1c[nH]cn1)NC(=O)[C@H](Cc1ccc(O)cc1)NC(=O)[C@@H](NC(=O)[C@H](CO)NC(=O)[C@H](CC(N)=O)NC(=O)[C@H](Cc1ccc(O)cc1)NC(=O)[C@H](CO)NC(=O)[C@H](CC(C)C)NC(=O)[C@H](Cc1c[nH]cn1)NC(C)=O)[C@@H](C)CC)[C@@H](C)O)C(=O)N[C@@H](C)C(N)=O` [RH5_006B] (Ac-HLSYNSIYHKSSTYGKCIA-NH2), the half-inhibitory concentration (IC50) worked out at 2.91 µM in test [1]; 0.834 µM in test [2]; 18.9 µM in test [3]; 29.3 µM in test [4]; 7.8 µM in test [5]; 1.35 µM in test [6]. The IC50 in test [7] was 19.8 µM.

For `CC[C@H](C)[C@H](NC(=O)[C@H](CCSC)NC(=O)[C@H](Cc1ccc(O)cc1)NC(=O)[C@@H](NC(=O)[C@H](Cc1ccccc1)NC(=O)[C@H](CCC(=O)O)NC(=O)[C@H](Cc1ccccc1)NC(=O)[C@H](C)N)[C@@H](C)O)C(=O)N[C@@H](CC(N)=O)C(=O)N[C@@H](Cc1ccccc1)C(=O)NCC(=O)N[C@@H](CCCNC(=N)N)C(=O)NCC(=O)N[C@@H](CCC(N)=O)C(=O)N[C@@H](CC(N)=O)C(=O)N[C@@H](Cc1ccc(O)cc1)C(=O)N[C@@H](Cc1c[nH]c2ccccc12)C(=O)N[C@@H](CCC(=O)O)C(N)=O` [AMA1_002] (H-AFEFTYMINFGRGQNYWE-NH2), the IC50 in test [1] turned out to be 0.045 µM; in test [2], 0.236 µM; in test [3] it was 0.239 µM; in test [4], 0.723 µM; in test [5], 0.076 µM; in test [6], 0.117 µM. Moreover, the IC50 in test [7] is 0.113 µM.

On to `CSCC[C@H](N)C(=O)N[C@@H](CCCNC(=N)N)C(=O)N[C@@H](CCCCN)C(=O)N[C@@H](CC(C)C)C(=O)N[C@@H](Cc1ccc(O)cc1)C(=O)N[C@@H](CS)C(=O)N[C@H](C(=O)N[C@@H](CC(C)C)C(=O)N[C@@H](CC(C)C)C(=O)N[C@@H](CC(C)C)C(=O)N[C@@H](CO)C(=O)N[C@@H](C)C(=O)N[C@@H](Cc1ccccc1)C(=O)N[C@@H](CCC(=O)O)C(=O)N[C@@H](Cc1ccccc1)C(=O)N[C@H](C(=O)N[C@@H](Cc1ccc(O)cc1)C(N)=O)[C@@H](C)O)C(C)C` [AMA1_001] (H-MRKLYCVLLLSAFEFTY-NH2), for which the IC50 is 1.47 µM in test [1]; 0.32 µM in test [2]; 17.3 µM in test [3]; 1.79 µM in test [4]; 0.751 µM in test [5]; 0.394 µM in test [6]. In addition, in test [7], the IC50 is 0.206 µM.

On to `CC[C@H](C)[C@H](NC(=O)[C@H](CC(N)=O)NC(=O)[C@H](CCC(N)=O)NC(=O)[C@H](CC(N)=O)NC(=O)[C@H](CC(N)=O)NC(=O)[C@H](Cc1ccccc1)NC(=O)[C@@H](NC(=O)[C@H](CS)NC(=O)[C@H](CC(C)C)NC(=O)[C@H](Cc1ccc(O)cc1)NC(=O)[C@H](CC(=O)O)NC(=O)[C@@H](N)Cc1ccc(O)cc1)C(C)C)C(=O)N[C@H](C(=O)N[C@@H](CO)C(=O)N[C@@H](CC(=O)O)C(=O)N[C@@H](CCCCN)C(=O)N[C@@H](CC(N)=O)C(N)=O)[C@@H](C)O` [RIPR_007] (H-YDYLCVFNNQNITSDKN-NH2), for which the IC50 was determined as 4.6 µM in test [1]; 8.65 µM in test [2]; 99 µM in test [3]; 9.26 µM in test [4]; 0.165 µM in test [5]; 2.78 µM in test [6]. The IC50 in test [7] was found to be 3.05 µM.

As for `CC[C@H](C)[C@H](NC(=O)[C@H](CCCCN)NC(=O)[C@H](CCC(=O)O)NC(=O)[C@@H](NC(=O)[C@H](CO)NC(=O)[C@H](CC(=O)O)NC(=O)[C@H](CCCNC(=N)N)NC(=O)[C@H](CC(N)=O)NC(=O)[C@H](CC(C)C)NC(=O)[C@@H](NC(=O)[C@@H](NC(=O)[C@H](Cc1ccc(O)cc1)NC(=O)[C@@H](NC(=O)[C@H](Cc1ccc(O)cc1)NC(=O)[C@H](CCCCN)NC(=O)[C@H](CC(N)=O)NC(=O)[C@H](CC(C)C)NC(=O)[C@H](Cc1ccc(O)cc1)NC(=O)[C@H](C)NC(=O)[C@H](Cc1ccc(O)cc1)NC(=O)[C@H](CC(=O)O)NC(C)=O)C(C)C)[C@@H](C)O)[C@@H](C)CC)[C@@H](C)O)C(=O)N[C@@H](CCCCN)C(=O)N[C@H](C(=O)N[C@@H](Cc1ccccc1)C(N)=O)[C@@H](C)O` [RIPR_002] (Ac-DYAYLNKYVYTILNRDSTEKIKTF-NH2), the IC50 in test [1] came out at 16.7 µM; in test [2] it was 1.47 µM; in test [3], 16.1 µM; in test [4], 50.4 µM; in test [5], 0.201 µM; in test [6], 0.152 µM. Further, the IC50 in test [7] was found to be 6.91 µM.

`CC[C@H](C)[C@H](NC(=O)[C@H](CCCNC(=N)N)NC(=O)[C@H](CO)NC(=O)[C@@H](NC(=O)[C@H](CCCNC(=N)N)NC(=O)[C@@H](NC(=O)[C@H](C)NC(=O)[C@H](CC(N)=O)NC(=O)[C@@H](NC(=O)[C@@H]1CCCN1C(=O)[C@@H](NC(=O)[C@H](Cc1ccc(O)cc1)NC(=O)[C@H](CCCCN)NC(=O)[C@H](CC(N)=O)NC(=O)[C@H](CCC(N)=O)NC(=O)[C@H](CCCCN)NC(C)=O)C(C)C)[C@@H](C)CC)C(C)C)C(C)C)C(=O)N[C@@H](CC(C)C)C(=O)N[C@@H](CO)C(=O)N[C@@H](Cc1ccccc1)C(=O)N[C@@H](CC(C)C)C(=O)N[C@@H](CC(=O)O)C(=O)N[C@@H](CO)C(N)=O` [EBA175_004] (Ac-KQNKYVPINAVRVSRILSFLDS-NH2): the IC50 in test [1] is 18.2 µM; in test [2] it was 0.396 µM; in test [3], 6.12 µM; in test [4], 1.36 µM; in test [5], 2.07 µM; in test [6], 0.004 µM. Besides, the IC50 in test [7] is 0.018 µM.

For `CC[C@H](C)[C@H](NC(=O)[C@H](CCC(=O)O)NC(=O)[C@@H](NC(=O)[C@H](CCCCN)NC(=O)[C@H](CCCCN)NC(C)=O)C(C)C)C(=O)N[C@@H](Cc1ccccc1)C(=O)N[C@@H](CCCNC(=N)N)C(=O)N[C@@H](CO)C(=O)N[C@@H](CCCNC(=N)N)C(=O)N[C@@H](Cc1ccccc1)C(=O)N[C@@H](CO)C(=O)N[C@@H](CO)C(=O)N[C@@H](CCCCN)C(=O)N[C@@H](CC(C)C)C(=O)N[C@@H](CCC(N)=O)C(=O)N[C@@H](CS)C(=O)N[C@@H](CCC(N)=O)C(N)=O` [RIPR_011] (Ac-KKVEIFRSRFSSKLQCQ-NH2), the IC50 in test [1] was 22 µM; in test [2] it was 9.22 µM; in test [3] it was 65.6 µM; in test [4] it was 9.43 µM; in test [5], 0.007 µM; in test [6], 1.36 µM. For the same compound, in test [7], the IC50 was found to be 13.7 µM.
